Source: patent US12447167B2, “GM-CSF-producing t-cell control agent and Th1/Th2 immune balance regulator” (National Center of Neurology and Psychiatry, priority 2014, dated 2025)

How the values were obtained:
IFN-γ = IFN-γ expression level of sorted CD4-positive memory T-cells of MS patients (ELISA of culture supernatant); type: in vivo, human; details: 0.3 mg single oral
Protocol: (§1) A single dose of compound 31, which is a synthetic glycolipid of the present invention, described in the first aspect was orally administered to each of 2 MS patients (subjects) shown in Table 2 above after obtainment of informed consent. The dose was set to 0.3 mg per person.
(§2) Subsequently, T-cell subfractions were prepared from the peripheral blood of each subject by using the density gradient centrifugation method. First, a total of 20 mL of blood was collected from the vein of each subject 24 hours (1st day), 48 hours (2nd day), 72 hours (3rd day), 168 hours (7th day), and 192 hours (8th day) after the administration of compound 31 by using two 10-mL heparin sodium-containing vacuum blood collection tubes. For a control, 20 mL of blood was similarly collected from the vein of each subject one day before the administration of compound 31.
(§3) The collected PBMCs were stained with antibodies by the following method. First, 10 μL of a solution consisting of 20 μL of MACS buffer, 0.25 μL of APC-Cy7-anti-CD3 antibody (BioLegend, Inc.), 1 μL of PB-anti-CD4 antibody (BioLegend, Inc.), 1 μL of PerCP-Cy5.5-anti-CD45RA antibody (BioLegend, Inc.), and 1 μL of PC7-anti-CD56 antibody (Beckman Coulter, Inc.) was added to 6×10^6 cells of PBMCs, thoroughly mixed by vortexing, and then left on ice for 20 minutes. CD56 is a detection marker of cells having NK activity, and CD3^−CD56^− cells indicate being antigen-presenting cells (APCs). […]
(§4) mCD4T and APC obtained by the sorting were each suspended in a medium consisting of 500 mL of RPMI1640 (GIBCO/Thermo Fisher Scientific Inc.), 5 mL of glutamine (200 mM, Wako Pure Chemical Industries, Ltd.), 5 mL of Pen/strep (10,000 U/mL, GIBCO/Thermo Fisher Scientific Inc.), 0.5 mL of 2-mercaptoethanol (GIBCO/Thermo Fisher Scientific Inc.), and 50 mL of 10% (v/v) Cellect FETAL BOVINE SERUM (MP Biomedicals, LLC), and the number of cells was measured. […]
(§5) After the culture, a culture supernatant was collected, and IFN-γ, IL-4, IL-17, and GM-CSF were measured by the ELISA method. […]

IL-17 = IL-17 expression level of sorted CD4-positive memory T-cells of MS patients (ELISA of culture supernatant); type: in vivo, human; details: 0.3 mg single oral
Protocol: as §1, §2, §3, §4, §5

GM-CSF = GM-CSF expression level of sorted CD4-positive memory T-cells of MS patients (ELISA of culture supernatant); type: in vivo, human; details: 0.3 mg single oral
Protocol: as §1, §2, §3, §4, §5

[1] = Disposition after single oral dose, mouse; type: in vivo; parameters: concentration in blood: unit not given here; details: male mouse, 5 mg/kg single oral, 14C-labeled, fasting
Protocol: (§6) After a single dose of compound 31 labeled with ^14C was orally administered at a predetermined dose to each of a male mouse, a male rat, and a male cynomolgus monkey under fasting conditions, the concentration in blood was measured after a lapse of a given time, and parameters such as maximum plasma concentration Cmax, time Tmax to reach the maximum plasma concentration, half-life t1/2, area under curve AUC0-∞, mean retention time MRT0-∞, and bioavailability BA were calculated. The concentration in blood in humans (normal subjects) was measured and each of the parameters was calculated, in the similar manner as above except that ^14C-unlabeled compound 31 was used.
(§7) In the tables, “N.D.” means not detected.

[2] = Disposition after single oral dose, cynomolgus monkey; type: in vivo; details: male cynomolgus monkey, 10 mg/kg single oral, 14C-labeled, fasting
Protocol: as §6, §7

[3] = Disposition after single oral dose, MS patients; type: in vivo, human; details: 0.3 mg/body single oral
Protocol: In the similar manner as in Example 5, a single dose of compound 31 labeled with ^14C was orally administered to each of 2 MS patients (subjects) after obtainment of informed consent, and the concentration of the compound in blood was measured and each parameter was calculated by collecting blood after a lapse of a given time.

CCCCCCCCCCCCCCCCCCCCCCCC(=O)NC(COC1OC(CO)C(O)C(O)C1O)[C@H](O)C(O)CCCCC (stereo in doubt) [compound 31, (2S,3S,4R)-1-O-(α-D-galactosyl)-2-(N-tetracosanoylamino)-1,3,4-nonanetriol]
IFNγ expression level (IFN-γ; day 8, MBP stimulation (culture condition B), day −1 value 28528.18): 7006.30 | IFNγ expression level (IFN-γ; day 8, OVA stimulation (culture condition A), day −1 value 23489.34): 5032.43 | change of expression level of IFN-γ (IFN-γ; day8 vs day-1): decreased | IL-17 expression level (IL-17; day 8, MBP stimulation, day −1 value 916.90): 491.24 | IL-17 expression level (IL-17; day 8, OVA stimulation, day −1 value 666.56): 158.50 | change of expression level of IL-17 (IL-17; day8 vs day-1): decreased | GM-CSF expression level (GM-CSF; day 8, MBP stimulation, day −1 value 153.15): 50.81 | GM-CSF expression level (GM-CSF; day 8, OVA stimulation, day −1 value 224.87): 168.45 | change of expression level of GM-CSF (GM-CSF; day8 vs day-1): decreased | AUC(0-inf) ([1]; blood): 2920 ng·h/mL | AUC(0-t) ([1]; blood): 2900 ng·h/mL | half-life ([1]; blood): 11 h | MRT inf ([1]; blood, read-out: MRT0-∞): 15.4 h | BA [1]: 1.01% | Rate of absorption [1]: 1.36% | concentration in blood ([1]; 4 h): 46.5 | concentration in blood ([1]; 8 h): 209 | concentration in blood ([1]; 12 h): 142 | concentration in blood ([1]; 24 h): 33 | concentration in blood ([1]; 48 h): 5.21 | concentration in blood ([1]; 72 h): 1.62 | Cmax ([1]; plasma): 209 ng/mL | Tmax ([1]; plasma): 8 h | AUC(0-inf) ([2]; blood): 2380 ng·h/mL | AUC(0-t) ([2]; blood): 2260 ng·h/mL | half-life ([2]; blood): 39.2 h | MRT inf ([2]; blood, read-out: MRT0-∞): 60.9 h | BA [2]: 0.11% | Rate of absorption [2]: 0.41% | concentration in blood ([2]; 4 h): 1.92 | concentration in blood ([2]; 8 h): 9.59 | concentration in blood ([2]; 12 h): 33.4 | concentration in blood ([2]; 24 h): 35.2 | concentration in blood ([2]; 48 h): 26.5 | concentration in blood ([2]; 72 h): 13 | concentration in blood ([2]; 96 h): 7.1 | concentration in blood ([2]; 120 h): 4.21 | concentration in blood ([2]; 144 h): 2.83 | concentration in blood ([2]; 168 h): 2.05 | Cmax ([2]; plasma): 39.4 ng/mL | Tmax ([2]; plasma): 28 h | concentration in blood in MS patients as compared with normal persons [3]: low concentration in blood | AUC(0-t) ([3]; human, blood): 1.41 ng·h/mL | Cmax ([3]; human, blood): 0.122 ng/mL | Tmax ([3]; human, blood): 18 h
